Earlier results on 1 compound are cited in patent US20040235767A1, “Anti-angiogenic and immunotherapeutic compositions for cancer treatment” (priority 2004, published 2004).

This data set concerns large tumours. As to conditions: previously reported.

Consider `Cc1ccc2c(=O)c3cccc(CC(=O)O)c3oc2c1C` [DMXAA, 5,6-dimethylxanthenone-4-acetic acid], for which the “effect on large tumours in combination with B7-1-mediated immunotherapy” value is given as “eradication of large tumours”.
